Source: ChEMBL document CHEMBL1201862, “PubChem BioAssay data set” (2004)
Activity calls are given as the source filed them.

Assays:
[1] = target: 5-hydroxytryptamine receptor 1A (Homo sapiens, UniProt P08908); type: functional
[2] = Escherichia coli growth inhibition, dose response, counter-screen for MEX-5/POS-1 RNA-binding inhibitor project, luminescence, NEB5alpha (AID 1959); type: functional
[3] = target: T1, RNA-binding protein pos-1 (Caenorhabditis elegans, UniProt G5EF15); assay: inhibitors of POS-1/mex-3 RNA binding, dose response, biochemical, fluorescence polarization (AID 1964);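 also: purified POS-1 fused to maltose binding protein made in E. coli; potency of compounds blocking POS-1 binding to fluorescent RNA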
T1 sequence (G5EF15 whole entry): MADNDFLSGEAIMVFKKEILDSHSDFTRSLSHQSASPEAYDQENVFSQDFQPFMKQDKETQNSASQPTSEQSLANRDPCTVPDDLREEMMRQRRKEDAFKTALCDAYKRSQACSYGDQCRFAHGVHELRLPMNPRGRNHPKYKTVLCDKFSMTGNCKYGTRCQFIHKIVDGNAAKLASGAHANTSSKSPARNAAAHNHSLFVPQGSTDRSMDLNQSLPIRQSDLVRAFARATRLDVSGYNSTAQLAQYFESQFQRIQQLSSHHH

[4] = target: T2, Zinc finger protein mex-5 (Caenorhabditis elegans, UniProt Q9XUB2); assay: MEX-5/TCR-2 RNA interaction inhibitors, dose response, biochemical, C. elegans, fluorescence polarization (AID 1960)
T2 sequence (Q9XUB2 whole entry): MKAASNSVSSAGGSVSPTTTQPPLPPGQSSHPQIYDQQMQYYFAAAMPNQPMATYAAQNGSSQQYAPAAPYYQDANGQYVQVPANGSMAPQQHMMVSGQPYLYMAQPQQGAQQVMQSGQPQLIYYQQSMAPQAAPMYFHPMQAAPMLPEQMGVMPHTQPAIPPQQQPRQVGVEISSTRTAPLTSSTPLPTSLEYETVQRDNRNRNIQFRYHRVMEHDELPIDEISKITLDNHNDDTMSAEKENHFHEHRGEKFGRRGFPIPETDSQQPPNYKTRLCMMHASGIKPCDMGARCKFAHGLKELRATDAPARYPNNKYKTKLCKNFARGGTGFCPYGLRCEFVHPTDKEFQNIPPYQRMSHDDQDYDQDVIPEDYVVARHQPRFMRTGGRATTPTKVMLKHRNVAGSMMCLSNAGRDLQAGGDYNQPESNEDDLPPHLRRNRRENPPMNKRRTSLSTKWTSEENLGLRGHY

[5] = M. tuberculosis H37Rv growth inhibitors, H37Rv strain (AID 1626); type: functional
[6] = HEp-2 cell cytotoxicity, dose response, cytotoxicity control for RSV inhibitor project, HTS (AID 2410); type: functional; settings: human respiratory syncytial virus
[7] = Luminescence Cell-Based Dose Response HTS to Identify Activators of Luciferase Translation or Activity in H4 […] Cells. [Related pubchem assays: 1829 (Project Summary), 1814 (Primary HTS)]; type: functional
H4 = assay: Luminescence Cell-Based Dose Response HTS to Identify Activators of 5'UTR Stem-Loop Driven Prion Protein mRNA Translation in H4 Neuroglioblastoma Cells. [Related pubchem assays: 1829 (Project Summary), 1814 (Primary HTS)]; type: functional; settings: Homo sapiens
[8] = target: Voltage-gated inwardly rectifying potassium channel KCNH2 (Homo sapiens, UniProt Q12809); assay: hERG protection from proarrhythmic block, potency, dose response, cell-based, thallium flux (AID 2121); type: ADME
[9] = Luminescence Cell-Based Dose Confirmation HTS to Identify Activators of 5'UTR Stem-Loop Driven Alpha-Synuclein mRNA Translation in H4 Neuroglioblastoma Cells. [Related pubchem assays: 1829 (Project Summary), 1814 (Primary HTS)]; type: functional
Estrogen receptor beta [10] = target: T3, Estrogen receptor beta (Homo sapiens, UniProt Q92731); assay: ERβ–SRC-3 coactivator interaction inhibitors, confirmation, orthogonal assay, biochemical, ELISA, streptavidin-HRP readout (AID 1060)
Estrogen receptor beta [11] = target: T3, Estrogen receptor beta
[12] = target: T4, Carboxy-terminal domain RNA polymerase II polypeptide A small phosphatase 1 (Homo sapiens, UniProt Q9GZU7); assay: inhibitors of CTDSP1, concentration-response testing, biochemical assay, absorbance-based, actives from ultra-high-throughput screening (AID 540297); type: functional
T4 sequence (Q9GZU7 whole entry): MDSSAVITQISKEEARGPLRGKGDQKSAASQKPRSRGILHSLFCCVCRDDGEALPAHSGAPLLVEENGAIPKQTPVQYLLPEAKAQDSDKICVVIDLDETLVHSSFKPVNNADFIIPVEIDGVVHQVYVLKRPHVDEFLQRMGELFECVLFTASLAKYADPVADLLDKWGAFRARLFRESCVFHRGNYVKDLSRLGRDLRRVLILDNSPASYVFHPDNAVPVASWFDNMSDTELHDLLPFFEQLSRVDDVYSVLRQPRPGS

[13] = target: T5, Corticotropin-releasing factor receptor 2/Corticotropin-releasing factor-binding protein (Homo sapiens, UniProt P24387+Q13324); assay: activators of CRF receptor 2 with binding protein – uHTS hits, confirmation (AID 602473); type: functional; settings: read-out: EC50_Mean
T5 sequence (Q13324 whole entry): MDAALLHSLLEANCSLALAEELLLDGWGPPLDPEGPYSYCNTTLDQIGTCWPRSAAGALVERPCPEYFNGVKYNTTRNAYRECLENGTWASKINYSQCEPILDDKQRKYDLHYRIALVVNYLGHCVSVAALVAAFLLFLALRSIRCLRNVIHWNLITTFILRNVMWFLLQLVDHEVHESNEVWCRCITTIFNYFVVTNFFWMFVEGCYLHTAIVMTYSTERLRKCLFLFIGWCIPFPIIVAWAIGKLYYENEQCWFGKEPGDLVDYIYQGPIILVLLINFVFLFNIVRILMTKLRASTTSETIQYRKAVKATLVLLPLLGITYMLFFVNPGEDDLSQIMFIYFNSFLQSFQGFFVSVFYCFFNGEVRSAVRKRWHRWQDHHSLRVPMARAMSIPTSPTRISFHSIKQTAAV
T5 sequence (P24387 whole entry): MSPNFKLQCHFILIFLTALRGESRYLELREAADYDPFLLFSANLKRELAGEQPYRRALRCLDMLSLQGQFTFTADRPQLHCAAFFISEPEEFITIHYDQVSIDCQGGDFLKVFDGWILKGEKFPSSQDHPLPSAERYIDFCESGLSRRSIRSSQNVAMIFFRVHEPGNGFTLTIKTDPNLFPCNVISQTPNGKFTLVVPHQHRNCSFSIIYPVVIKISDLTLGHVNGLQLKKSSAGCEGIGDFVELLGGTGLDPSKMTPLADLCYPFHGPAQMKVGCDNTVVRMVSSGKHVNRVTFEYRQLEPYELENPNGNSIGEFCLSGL

[14] = target: Potassium voltage-gated channel subfamily KQT member 2 (Rattus norvegicus, UniProt O88943, W236L); assay: KCNQ2 channel potentiators, dose response, mechanism study for KCNQ2 potentiator project, cell-based, automated electrophysiology (AID 2603); type: functional
Streptococcus = assay: Group A Streptococcus viability loss, dose response, counter-screen for streptokinase expression inhibitor project, luminescence, BacTiterGlo (AID 1915); type: functional, organism-based;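 also: potency for reduction of bacterial viability or growth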
[15] = C. albicans growth with fluconazole, confirmation, fluorescence, retest (AID 2467); type: functional, cell-based
[16] = test system: Streptococcus sp. 'group A'; assay: growth inhibition of control SK(-) GAS strain, dose response, counter-screen for streptokinase expression inhibitor project, luminescence, kanamycin, BacTiterGlo, confirmation (AID 1900); type: functional, organism-based
[17] = NIH-3T3 fibroblast cytotoxicity, dose response, cytotoxicity control, cell-based, fluorescence, Alamar Blue, secondary assay (AID 2327); type: functional;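 also: NIH-3T3 mouse fibroblasts cultured with fluconazole at 8 µg/mL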
[18] = target: Voltage-gated N-type calcium channel alpha-1B subunit/Amyloid beta A4 precursor protein-binding family A member 1 (Homo sapiens, UniProt Q00975+Q02410); type: protein assay
[19] = Luminescent dose response cell-based high throughput screening assay for inhibitors of the Janus kinase 2 mutant JAK2V617F. [Related pubchem assays: 1446 (Primary screen.), 1521 (Confirmation assay.), 1486 (Counter screen.)]; type: functional

T3 sequence (Q92731 whole entry): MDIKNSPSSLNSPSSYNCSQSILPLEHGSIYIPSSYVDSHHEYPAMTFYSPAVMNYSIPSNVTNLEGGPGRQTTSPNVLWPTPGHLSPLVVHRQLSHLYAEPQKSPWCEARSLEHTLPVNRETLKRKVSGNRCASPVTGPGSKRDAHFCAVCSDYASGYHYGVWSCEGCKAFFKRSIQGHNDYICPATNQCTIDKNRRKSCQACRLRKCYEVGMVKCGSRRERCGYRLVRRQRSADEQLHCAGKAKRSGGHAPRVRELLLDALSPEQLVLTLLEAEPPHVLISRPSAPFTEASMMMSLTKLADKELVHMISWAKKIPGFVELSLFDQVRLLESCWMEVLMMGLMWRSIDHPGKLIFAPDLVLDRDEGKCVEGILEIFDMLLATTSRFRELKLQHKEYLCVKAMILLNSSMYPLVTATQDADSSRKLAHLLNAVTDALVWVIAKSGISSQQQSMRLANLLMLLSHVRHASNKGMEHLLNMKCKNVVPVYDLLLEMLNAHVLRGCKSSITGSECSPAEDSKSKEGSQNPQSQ
Chain of Voltage-gated inwardly rectifying potassium channel KCNH2 (Q12809 whole entry): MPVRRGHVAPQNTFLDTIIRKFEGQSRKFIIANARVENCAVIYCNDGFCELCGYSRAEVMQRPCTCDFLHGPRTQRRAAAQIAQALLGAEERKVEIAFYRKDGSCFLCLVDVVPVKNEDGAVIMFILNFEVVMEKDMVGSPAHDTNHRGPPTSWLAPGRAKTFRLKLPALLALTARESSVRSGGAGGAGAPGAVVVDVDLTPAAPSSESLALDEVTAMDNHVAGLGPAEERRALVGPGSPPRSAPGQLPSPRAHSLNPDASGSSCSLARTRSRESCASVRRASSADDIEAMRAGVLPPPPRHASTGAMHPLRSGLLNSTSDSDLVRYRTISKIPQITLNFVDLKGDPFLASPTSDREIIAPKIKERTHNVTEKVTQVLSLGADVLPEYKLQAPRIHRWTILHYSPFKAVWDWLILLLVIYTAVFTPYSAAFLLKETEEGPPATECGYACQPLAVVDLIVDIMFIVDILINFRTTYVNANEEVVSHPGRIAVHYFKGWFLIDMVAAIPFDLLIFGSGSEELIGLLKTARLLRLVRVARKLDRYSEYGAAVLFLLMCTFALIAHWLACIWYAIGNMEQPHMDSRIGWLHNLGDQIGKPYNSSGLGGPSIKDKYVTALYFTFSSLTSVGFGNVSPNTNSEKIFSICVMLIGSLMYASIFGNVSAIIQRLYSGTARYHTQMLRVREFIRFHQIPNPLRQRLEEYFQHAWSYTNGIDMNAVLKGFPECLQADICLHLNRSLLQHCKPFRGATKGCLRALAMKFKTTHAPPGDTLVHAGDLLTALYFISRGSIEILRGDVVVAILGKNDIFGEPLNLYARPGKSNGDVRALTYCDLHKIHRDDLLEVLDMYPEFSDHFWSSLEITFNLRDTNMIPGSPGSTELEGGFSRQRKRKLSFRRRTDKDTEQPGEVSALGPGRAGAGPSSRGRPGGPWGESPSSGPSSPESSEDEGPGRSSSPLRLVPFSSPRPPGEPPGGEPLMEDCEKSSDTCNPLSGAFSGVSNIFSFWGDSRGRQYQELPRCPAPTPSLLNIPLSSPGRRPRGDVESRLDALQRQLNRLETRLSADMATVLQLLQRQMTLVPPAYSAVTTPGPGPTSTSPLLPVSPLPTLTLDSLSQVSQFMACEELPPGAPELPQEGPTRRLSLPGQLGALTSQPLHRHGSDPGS
Chain of 5-hydroxytryptamine receptor 1A (P08908 whole entry): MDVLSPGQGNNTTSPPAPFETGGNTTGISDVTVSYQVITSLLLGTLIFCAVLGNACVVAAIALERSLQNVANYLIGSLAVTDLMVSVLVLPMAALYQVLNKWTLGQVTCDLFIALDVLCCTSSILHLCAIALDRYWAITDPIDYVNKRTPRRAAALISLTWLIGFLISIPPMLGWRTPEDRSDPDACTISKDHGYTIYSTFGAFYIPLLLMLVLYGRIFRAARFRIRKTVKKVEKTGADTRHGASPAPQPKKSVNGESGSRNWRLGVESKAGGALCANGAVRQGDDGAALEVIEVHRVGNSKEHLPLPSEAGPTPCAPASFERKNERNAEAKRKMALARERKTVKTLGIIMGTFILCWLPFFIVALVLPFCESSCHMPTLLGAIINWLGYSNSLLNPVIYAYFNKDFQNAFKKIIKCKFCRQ
Chain of Potassium voltage-gated channel subfamily KQT member 2 (O88943 whole entry W236L): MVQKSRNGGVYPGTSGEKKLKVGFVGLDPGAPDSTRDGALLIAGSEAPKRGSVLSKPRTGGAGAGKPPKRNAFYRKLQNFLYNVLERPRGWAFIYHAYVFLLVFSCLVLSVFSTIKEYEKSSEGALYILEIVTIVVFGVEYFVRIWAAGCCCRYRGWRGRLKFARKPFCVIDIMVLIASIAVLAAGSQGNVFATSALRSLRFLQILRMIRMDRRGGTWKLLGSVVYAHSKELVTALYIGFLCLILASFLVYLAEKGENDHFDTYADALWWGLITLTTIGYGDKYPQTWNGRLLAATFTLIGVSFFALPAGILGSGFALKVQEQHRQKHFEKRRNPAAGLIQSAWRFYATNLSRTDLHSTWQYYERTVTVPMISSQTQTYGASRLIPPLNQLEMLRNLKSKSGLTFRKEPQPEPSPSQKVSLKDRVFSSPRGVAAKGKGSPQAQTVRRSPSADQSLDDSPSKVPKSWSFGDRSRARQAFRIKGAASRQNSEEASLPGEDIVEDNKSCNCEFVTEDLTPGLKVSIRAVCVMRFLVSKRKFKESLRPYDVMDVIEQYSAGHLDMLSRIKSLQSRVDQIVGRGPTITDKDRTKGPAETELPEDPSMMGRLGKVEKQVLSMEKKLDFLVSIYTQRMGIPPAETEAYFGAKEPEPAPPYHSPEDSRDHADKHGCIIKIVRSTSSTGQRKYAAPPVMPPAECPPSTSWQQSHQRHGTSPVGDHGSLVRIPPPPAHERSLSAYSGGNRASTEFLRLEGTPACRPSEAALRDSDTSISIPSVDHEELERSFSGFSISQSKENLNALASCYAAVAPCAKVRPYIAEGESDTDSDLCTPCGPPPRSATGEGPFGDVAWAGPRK

SMILES: c1ccc(N2CCN(Cc3cn4cccnc4n3)CC2)cc1
- EC50 [1]: > 50 µM (not active)

SMILES: O=c1c2ccccc2nc(N/N=C/c2ccc(O)cc2)n1O
- EC50 [2]: 14.3 µM (active)
- EC50 [3]: > 300 µM (not active)
- EC50 [4]: > 300 µM (inconclusive)

SMILES: Cc1cc(-c2ccc(/C=N/n3cnnc3)o2)ccc1Cl
- IC50 [5]: > 100 µM (active)
- CC50 [6]: > 50 µM (active)

SMILES: CCOC(=O)c1sc(NC(=S)NC(=O)c2ccccc2)nc1C
- EC50 [7]: 7.98 µM (active)
- EC50 (H4): 25 µM (active)
- EC50 [8]: 3.68 µM (active)
- EC50 [9]: 17.6 µM (active)

SMILES: CCCc1nc2sc3ccccc3c(=O)c2c(=O)n1Cc1ccco1
- IC50 (Estrogen receptor beta [10]): 0.709 µM (not active)
- IC50 (Estrogen receptor beta [11]): 11.6 µM (active)
- IC50 [12]: 9.92 µM (active)
- EC50 [13]: 13.8 µM (active)

SMILES: O=C(Cc1ccccc1)N/N=C/c1cc(Br)cc(Cl)c1O
- EC50 [14]: 7.13 µM (active)
- EC50 (Streptococcus): 1.73 µM (active)
- EC50 [15]: 4.68 µM (active)
- EC50 [16]: 1.05 µM (active)
- EC50 [17]: > 150 µM (inactive)

SMILES: Nc1cccc(-c2nc3cc(S(=O)(=O)c4ccc5oc(-c6cccc(N)c6)nc5c4)ccc3o2)c1
- IC50 [18]: 13.2 µM (active)

SMILES: Oc1ccccc1OCCOc1ccccc1OCCOc1ccccc1O
- IC50 [19]: 1.48 µM (active)
